Values of other authors in patent US11058666B2, “Oral administration of melanin for protection against radiation” (priority 2011, dated 2021).

Details: after 9 Gy delivered at 1 Gy/min, published data

SMILES: NCCCNCCSP(=O)(O)O [amifostine]
- survival: 60%
